From patent publication US20100130738A1 (priority 2007, published 2010)

Columns and labels:
PDE4Bcat = target: T1, PDE4Bcat (Homo sapiens, UniProt Q07343); assay: Phosphodiesterase inhibitory activity, recombinant PDE4Bcat, [3H]cAMP; assay type: biochemical; settings: 30° C. 20 minutes, read-out: IC50 (μmol/L) PDE4
T1 construct: made in house; host or cells: Sf9 insect cells (baculovirus, Bac-to-Bac / Gateway)

[1] = target: T2, PDE3A catalytic domain (PDE3Acat) (Homo sapiens, UniProt Q14432); assay: Phosphodiesterase inhibitory activity, recombinant PDE3Acat, [3H]cAMP; assay type: biochemical; settings: 30° C. 20 minutes, read-out: IC50 (μmol/L) PDE3
T2 construct: isolate the cDNA of a PDE3A catalytic domain; made in house; host or cells: Sf9 insect cells (baculovirus, Bac-to-Bac / Gateway)
T2 sequence (Q14432 674-1093 limits assumed): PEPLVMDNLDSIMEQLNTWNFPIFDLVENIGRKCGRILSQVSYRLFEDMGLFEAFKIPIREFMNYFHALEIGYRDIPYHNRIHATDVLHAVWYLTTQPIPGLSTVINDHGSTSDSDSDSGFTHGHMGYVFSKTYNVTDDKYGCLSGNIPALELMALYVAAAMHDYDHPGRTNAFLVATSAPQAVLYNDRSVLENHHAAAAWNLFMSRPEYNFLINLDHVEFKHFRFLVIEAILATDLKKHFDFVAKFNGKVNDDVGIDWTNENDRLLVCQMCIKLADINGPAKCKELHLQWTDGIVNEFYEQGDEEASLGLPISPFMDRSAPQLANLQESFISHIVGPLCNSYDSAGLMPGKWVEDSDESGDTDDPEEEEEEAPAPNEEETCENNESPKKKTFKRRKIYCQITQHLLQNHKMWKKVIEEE

T1 sequence (Q07343 330-659 limits assumed): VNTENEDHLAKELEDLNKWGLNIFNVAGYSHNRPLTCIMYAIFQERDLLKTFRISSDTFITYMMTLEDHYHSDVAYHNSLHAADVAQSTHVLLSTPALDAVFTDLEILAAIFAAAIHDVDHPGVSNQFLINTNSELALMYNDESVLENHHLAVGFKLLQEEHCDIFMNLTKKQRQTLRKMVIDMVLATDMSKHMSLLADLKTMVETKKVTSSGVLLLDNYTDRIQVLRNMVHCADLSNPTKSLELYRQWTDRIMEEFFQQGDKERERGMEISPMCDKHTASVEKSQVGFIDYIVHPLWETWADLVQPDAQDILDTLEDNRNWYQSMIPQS

SMILES | IC50 (PDE4Bcat) | melting point | IC50 [1]
COc1ccc(C2=NN(CCCCOc3ccc(C4=NNC(=O)C4(C)C)c(F)c3F)C(=O)C2(C)C)c2cc(C(F)(F)F)sc12 [Example 223, 2-[4-[2,3-Difluoro-4-(4,4-dimethyl-5-oxo-4,5-dihydro-1H-pyrazol-3-yl)phenoxy]butyl]-5-(7-methoxy-2-trifluoromethylbenzo[b]thiophen-4-yl)-4,4-dimethyl-2,4-dihydro-pyrazol-3-one] | 0.01 to 0.1 µmol/L | 167 to 168 °C | 0.01 to 0.1 µmol/L
COc1ccc(C2=NN(CCCCOc3ccc(C4=NNC(=O)CC4)c(F)c3F)C(=O)C2(C)C)c2cc(C(F)(F)F)sc12 [Example 222, 2-[4-[2,3-Difluoro-4-(6-oxo-1,4,5,6-tetrahydropyridazin-3-yl)phenoxy]butyl]-5-(7-methoxy-2-trifluoromethylbenzo[b]thiophen-4-yl)-4,4-dimethyl-2,4-dihydro-pyrazol-3-one] | 0.1 to 1 µmol/L | 176 to 177 °C | < 0.01 µmol/L
COc1ccc(C2=NN(CCCCOc3ccc(C4=NNC(=O)CC4C)c(F)c3F)C(=O)C2(C)C)c2cc(C(F)(F)F)sc12 (stereo not drawn) [Example 224, 2-[4-[2,3-Difluoro-4-(4-methyl-6-oxo-1,4,5,6-tetrahydropyridazin-3-yl)phenoxy]butyl]-5-(7-methoxy-2-trifluoromethylbenzo[b]thiophen-4-yl)-4,4-dimethyl-2,4-dihydro-pyrazol-3-one] | 0.01 to 0.1 µmol/L | 137 to 138 °C | < 0.01 µmol/L
